Data as given in US20210393633A1, “INHIBITORS OF HUMAN IMMUNODEFICIENCY VIRUS REPLICATION” (ViiV HEALTHCARE UK (NO.5) LIMITED, priority 2018, published 2021).

What was measured:
[1] = system: recombinant NL4-3 virus (nef section replaced with Renilla luciferase gene) in MT-2 cells; experiment: HIV cell culture assay (antiviral activity, luciferase readout in infected MT-2 cells); assay type: cell-based; details: NL43
Method: HIV cell culture assay—MT-2 cells, 293T cells and the proviral DNA clone of NL4-3 virus were obtained from the NIH AIDS Research and Reference Reagent Program. MT-2 cells were propagated in RPMI 1640 media supplemented with 10% heat inactivated fetal bovine serum (FBS), […]. The 293T cells were propagated in DMEM media supplemented with 10% heat inactivated FBS, […]. A recombinant NL4-3 proviral clone, in which a section of the nef gene was replaced with the Renilla luciferase gene, was used to make the reference virus used in these studies. The recombinant virus was prepared through transfection of the recombinant NL4-3 proviral clone into 293T cells using Transit-293 Transfection Reagent from Minis Bio LLC (Madison, Wis.). Supernatent was harvested after 2-3 days and the amount of virus present was titered in MT-2 cells using luciferase enzyme activity as a marker by measuring luciferase enzyme activity. Luciferase was quantitated using the EnduRen Live Cell Substrate from Promega (Madison, Wis.). Antiviral activities of compounds toward the recombinant virus were quantified by measuring luciferase activity in MT-2 cells infected for 4-5 days with the recombinant virus in the presence of serial dilutions of the compound.
The 50% effective concentration (EC5o) was calculated by using the exponential form of the median effect equation where (Fa)=1/[1+(ED50/drug conc.)m] (Johnson Va., Byington R T. Infectivity Assay. In Techniques in HIV Research. ed. Aldovini A, Walker B D. 71-76. New York: Stockton Press.1990). The 50% inhibitory concentration (EC50) was calculated by using the exponential form of the median effect equation where percent inhibition=1/[1 +(EC50/drug concentration)m], where m is a parameter that reflects the slope of the concentration-response curve.

[2] = Compound cytotoxicity, XTT-based colorimetric assay; assay type: cell-based; details: human; uninfected MT2 cells, day 4, XTT
Method: Compound cytotoxicity and the corresponding CC50 values were determined using the same protocol as described in the antiviral assay except that uninfected cells were used. Cytotoxicity was assessed on day 4 in uninfected MT2 cells by using a XTT (2,3-bis[2-Methoxy-4-nitro-5-sulfophenyl]-2H-tetrazolium-5-carboxyanilide inner salt)-based colorimetric assay (Sigma-Aldrich, St Louis, Mo).

Row | SMILES | EC50 [1] [nM] | CC50 at 4 day [2] [nM]
1 | CS(=O)(=O)Nc1nn(CC(F)F)c2c(-n3c([C@H](Cc4cc(F)cc(F)c4)NC(=O)Cn4nc(C(F)F)c5c4C(F)(F)[C@@H]4C[C@H]54)nc4cc(C5=CCOCC5)ccc4c3=O)ccc(Cl)c12 (atropisomer, axis not shown; (P)) [Example 15, N—((S)-1-((3P)-3-(4-chloro-1-(2,2-difluoroethyl)-3-(methylsulfonamido)-1H-indazol-7-yl)-7-(3,6-dihydro-2H-pyran-4-yl)-4-oxo-3,4-dihydroquinazolin-2-yl)-2-(3,5-difluorophenyl)ethyl)-2-((3bS,4aR)-3-(difluoromethyl)-5,5-difluoro-3b,4,4a,5-tetrahydro-1H-cyclopropal3,41cyclopenta[1,2-c]pyrazol-1-yl)acetamide] | 0.094 | > 500
2 | CS(=O)(=O)Nc1nn(CC(F)F)c2c(-n3c([C@H](Cc4cc(F)cc(F)c4)NC(=O)Cn4nc(C(F)F)c5c4C(F)(F)[C@@H]4C[C@H]54)nc4cc(C5CCOCC5)ccc4c3=O)ccc(Cl)c12 (atropisomer, axis not shown; (P)) [Example 17, N—((S)-1-((3P)-3-(4-chloro-1-(2,2-difluoroethyl)-3-(methylsulfonamido)-1H-indazol-7-yl)-4-oxo-7-(tetrahydro-2H-pyran-4-yl)-3,4-dihydroquinazolin-2-yl)-2-(3,5-difluorophenyl)ethyl)-2-((3bS,4aR)-3-(difluoromethyl)-5,5-difluoro-3b,4,4a,5-tetrahydro-1H-cyclopropal3,41cyclopenta[1,2-c]pyrazol-1-yl)acetamide] | 0.06 | > 500
3 | O=C(Cn1nc(C(F)F)c2c1C(F)(F)[C@@H]1C[C@H]21)N[C@@H](Cc1cc(F)cc(F)c1)c1nc2cc(C3CCOCC3)ccc2c(=O)n1-c1ccc(Cl)c2c(NS(=O)(=O)C3CC3)nn(CC(F)F)c12 (atropisomer, axis not shown; (P)) [Example 18] | 0.084 | > 500
4 | C[C@@H]1CC(c2ccc3c(=O)n(-c4ccc(Cl)c5c(NS(C)(=O)=O)nn(C)c45)c([C@H](Cc4cc(F)cc(F)c4)NC(=O)Cn4nc(C(F)F)c5c4C(F)(F)[C@@H]4C[C@H]54)nc3c2)=C[C@H](C)O1 (atropisomer, axis not shown; (P)) [Example 19, N—((S)-1-((3P)-3-(4-chloro-1-methyl-3-(methylsulfonamido)-1H-indazol-7-yl)-7-((2R,6S)-2,6-dimethyl-3,6-dihydro-2H-pyran-4-yl)-4-oxo-3,4-dihydroquinazolin-2-yl)-2-(3,5-difluorophenyl)ethyl)-2-((3bS,4aR)-3-(difluoromethyl)-5,5-difluoro-3b,4,4a,5-tetrahydro-1H-cyclopropa[3,4]cyclopenta[1,2-c]pyrazol-1-yl)acetamide] | 0.08 | > 500
5 | C[C@@H]1CC(c2ccc3c(=O)n(-c4ccc(Cl)c5c(NS(C)(=O)=O)nn(CC(F)F)c45)c([C@H](Cc4cc(F)cc(F)c4)NC(=O)Cn4nc(C(F)F)c5c4C(F)(F)[C@@H]4C[C@H]54)nc3c2)=C[C@H](C)O1 (atropisomer, axis not shown; (P)) [Example 20, N—((S)-1-((3P)-3-(4-chloro-1-(2,2-difluoroethyl)-3-(methylsulfonamido)-1H-indazol-7-yl)-7-((2R,6S)-2,6-dimethyl-3,6-dihydro-2H-pyran-4-yl)-4-oxo-3,4-dihydroquinazolin-2-yl)-2-(3,5-difluorophenyl)ethyl)-2-((3bS,4aR)-3-(difluoromethyl)-5,5-difluoro-3b,4,4a,5-tetrahydro-1H-cyclopropa[3,4]cyclopenta[1,2-c]pyrazol-1-yl)acetamide] | 0.13 | > 500
6 | C[C@@H]1CC(c2ccc3c(=O)n(-c4ccc(Cl)c5c(NS(=O)(=O)C6CC6)nn(CC(F)F)c45)c([C@H](Cc4cc(F)cc(F)c4)NC(=O)Cn4nc(C(F)F)c5c4C(F)(F)[C@@H]4C[C@H]54)nc3c2)=C[C@H](C)O1 (atropisomer, axis not shown; (P)) [Example 21, N—((S)-1-((3P)-3-(4-chloro-3-(cyclopropanesulfonamido)-1-(2,2-difluoroethyl)-1H-indazol-7-yl)-7-((2R,6S)-2,6-dimethyl-3,6-dihydro-2H-pyran-4-yl)-4-oxo-3,4-dihydroquinazolin-2-yl)-2-(3,5-difluorophenyl)ethyl)-2-((3bS,4aR)-3-(difluoromethyl)-5,5-difluoro-3b,4,4a,5-tetrahydro-1H-cyclopropa[3,4]cyclopenta[1,2-c]pyrazol-1-yl)acetamide] | 0.14 | > 500
7 | COC(C)(C)CCc1ccc2c(=O)n(-c3ccc(Cl)c4c(NS(C)(=O)=O)nn(C)c34)c([C@H](Cc3cc(F)cc(F)c3)NC(=O)Cn3nc(C(F)F)c4c3C(F)(F)[C@@H]3C[C@H]43)nc2c1 (atropisomer, axis not shown; (P)) [Example 24, N—((S)-1-((3P)-3-(4-chloro-1-methyl-3-(methylsulfonamido)-1H-indazol-7-yl)-7-(3-methoxy-3-methylbutyl)-4-oxo-3,4-dihydroquinazolin-2-yl)-2-(3,5-difluorophenyl)ethyl)-2-((3bS,4aR)-3-(difluoromethyl)-5,5-difluoro-3b,4,4a,5-tetrahydro-1H-cyclopropa[3,4]cyclopenta[1,2-c]pyrazol-1-yl)acetamide] | 0.039 | > 500
8 | Cn1nc(NS(C)(=O)=O)c2c(Cl)ccc(-n3c([C@H](Cc4cc(F)cc(F)c4)NC(=O)Cn4nc(C(F)F)c5c4C(F)(F)[C@@H]4C[C@H]54)nc4cc(C(F)(F)C5CCC5)ccc4c3=O)c21 (atropisomer, axis not shown; (P)) [Example 25, N—((S)-1-((3P)-3-(4-chloro-1-methyl-3-(methylsulfonamido)-1H-indazol-7-yl)-7-(cyclobutyldifluoromethyl)-4-oxo-3,4-dihydroquinazolin-2-yl)-2-(3,5-difluorophenyl)ethyl)-2-((3bS,4aR)-3-(difluoromethyl)-5,5-difluoro-3b,4,4a,5-tetrahydro-1H-cyclopropa[3,4]cyclopenta[1,2-c]pyrazol-1-yl)acetamide] | 0.75 | > 500
9 | Cn1nc(NS(C)(=O)=O)c2c(Cl)ccc(-n3c([C@H](Cc4cc(F)cc(F)c4)NC(=O)Cn4nc(C(F)F)c5c4C(F)(F)[C@@H]4C[C@H]54)nc4cc(C5(C(F)(F)F)CC5)ccc4c3=O)c21 (atropisomer, axis not shown; (P)) [Example 27] | 0.13 | > 500
10 | Cn1nc(NS(C)(=O)=O)c2c(Cl)ccc(-n3c([C@H](Cc4cc(F)cc(F)c4)NC(=O)Cn4nc(C(F)F)c5c4C(F)(F)[C@@H]4C[C@H]54)nc4cc(CCC(=O)N5CCOCC5)ccc4c3=O)c21 [Example 1, N—((S)-1-((3P)-3-(4-chloro-1-methyl-3-(methylsulfonamido)-1H-indazol-7-yl)-7-(3-morpholino-3-oxopropyl)-4-oxo-3,4-dihydroquinazolin-2-yl)-2-(3,5-difluorophenyl)ethyl)-2-((3bS,4aR)-3-(difluoromethyl)-5,5-difluoro-3b,4,4a,5-tetrahydro-1H-cyclopropa[3,4]cyclopenta[1,2-c]pyrazol-1-yl)acetamide] | 0.096 | > 1000
11 | CC1NCCNC1c1ccc2c(=O)n(-c3ccc(Cl)c4c(NS(C)(=O)=O)nn(C)c34)c([C@H](Cc3cc(F)cc(F)c3)NC(=O)Cn3nc(C(F)F)c4c3C(F)(F)[C@@H]3C[C@H]43)nc2c1 (stereo partly drawn) [Example 10, N-((1S)-1-((3P)-3-(4-chloro-1-methyl-3-(methylsulfonamido)-1H-indazol-7-yl)-7-(3-methylpiperazin-2-yl)-4-oxo-3,4-dihydroquinazolin-2-yl)-2-(3,5-difluorophenyl)ethyl)-2-((3bS,4aR)-3-(difluoromethyl)-5,5-difluoro-3b,4,4a,5-tetrahydro-1H-cyclopropa[3,4]cyclopenta[1,2-c]pyrazol-1-yl)acetamide] | 0.933 | > 1000
12 | O=C(Cn1nc(C(F)F)c2c1C(F)(F)[C@@H]1C[C@H]21)N[C@@H](Cc1cc(F)cc(F)c1)c1nc2cc(C3=CCOCC3)ccc2c(=O)n1-c1ccc(Cl)c2c(NS(=O)(=O)C3CC3)nn(CC(F)F)c12 [Example 16, N—((S)-1-((3P)-3-(4-chloro-3-(cyclopropanesulfonamido)-1-(2,2-difluoroethyl)-1H-indazol-7-yl)-7-(3,6-dihydro-2H-pyran-4-yl)-4-oxo-3,4-dihydroquinazolin-2-yl)-2-(3,5-difluorophenyl)ethyl)-2-((3bS,4aR)-3-(difluoromethyl)-5,5-difluoro-3b,4,4a,5-tetrahydro-1H-cyclopropa[3,4]cyclopenta[1,2-c]pyrazol-1-yl)acetamide] | 0.3 | > 500
